This note sets out measurements from patent publication US20160206543A1, “SYNERGISTIC COMPOSITIONS AND METHODS FOR MITIGATING SKIN IRRITATION AND ENHANCING SKIN BARRIER FUNCTION” (GOJO INDUSTRIES, INC., priority 2014, published 2016).

Assay type in all cases: cell-based, human
In one assay the test system is IL-8. In words: IL-8 ELISA (Part 1, Quantikine kit), surfactant-induced irritation. The note with it: for IL-8 secreted: human dermal keratinocytes co-treated with surfactant mixture (sodium laureth sulfate + polyquaternium-10), Control B = 100%, Control A = 0%; for Reduction of IL-8 Secretion Compared to Control B: subtracting from 100% for Control B. An excerpt:
Interleukin 8 (IL-8) is a chemokine and proinflammatory cytokine produced by macrophages and other cell types such as epithelial cells. It is secreted from keratinocytes in skin in response to inflammatory stimuli. IL-8 is secreted and is an important mediator of the immune reaction in the innate immune system response. IL-8 overexpressed is a biomarker of skin irritation.
For Control A, human dermal keratinocytes are left untreated. No irritation is expected, and therefore Control A provides a baseline. For Control B, IL-8 is induced in human dermal keratinocytes by applying a surfactant mixture that is a combination of sodium laureth sulfate and polyquaternium-10. For all other samples, the human dermal keratinocytes are co-treated with the surfactant mixture and a composition containing the ingredient of interest. Decreased Il-8 expression reflects the ingredient's anti-irritation activity.
In order to carry out the test method, an assay kit was employed that was obtained from R&D Systems: Human CXCL8/IL-8 Quantikine ELISA Kit.
The following steps were followed: 1. Bring all reagents and samples to room temperature before use. 2. Prepare all reagents, standard dilutions, and samples. 3. Remove excess microplate strips from the plate frame, return them to the foil pouch containing the desiccant pack, and reseal. 4. Add 100 μL of Assay Diluent to each well. 5. Add 50 μL of Standard, control, or sample to each well. Cover with a plate sealer, and incubate at room temperature for 2 hours. 6. Aspirate each well and wash, repeating the process 3 times for a total of 4 washes. 7. Add 100 μL of Conjugate to each well. Cover with a new plate sealer, and incubate at room temperature for 1 hour. 8. Aspirate and wash 4 times. 9. Add 200 μL Substrate Solution to each well. Incubate at room temperature for 30 minutes, making sure to protect the wells from the light. 10. Add 50 μL of Stop Solution to each well. The liquid was removed from the well and, using a colorimeter, absorbance was measured at 450 nanometers (nm) within 30 minutes. Wavelength correction was set to 540 nm or 570 nm.
The samples were tested for IL-8 secretion as described in the test method above. That is, for Control A, human dermal keratinocytes were left untreated. For Control B, IL-8 a surfactant mixture that was a combination of sodium laureth sulfate and polyquaternium-10. For all other samples, the human dermal keratinocytes were co-treated with the surfactant mixture and a composition containing the ingredient of interest. Decreased 11-8 expression reflects the ingredient's anti-irritation activity. The results are summarized in Table 2 and shown graphically in FIG. 1.
The amount of the reduction in IL-8 secretion for the test samples (subtracting from 100% for Control B) is summarized in Table 2 and shown graphically in FIG. 2. It can be seen that the combination of acetyl hexapeptide-46 and acetyl hexapeptide-38 produce an enhanced reduction in IL-8 secretion, particularly for the higher concentrations.

The test system of the next assay is DSC3. Briefly: Cell-cell junction, qRT-PCR for desmocollin (DSC3). As to conditions: keratinocytes treated overnight; KGM = 100. An excerpt: (§1) Tight Junctions are the closely associated areas of two cells whose membranes join together forming a virtually impermeable barrier to fluid. A desmosome is a cell structure specialized for cell-to-cell adhesion. A type of junction complex, they are localized spot-like adhesions randomly arranged on the lateral sides of plasma membranes. Desmosomes are molecular complexes of cell adhesion proteins and linking proteins that attach the cell surface adhesion proteins to intracellular keratin cytoskeletal filaments.
(§2) The cell adhesion proteins of the desmosome, desmoglein (DSG) and desmocollin (DSC), are members of the cadherin family of cell adhesion molecules. They are biomarker of skin tight junctions. In particular, DSG1 is a biomarker for cell binding, the higher the expression, the better skin cell-cell junction and the better skin barrier function will be. DSC3 is a protein in humans that is encoded by the DSC3 gene, the higher the expression, the better skin cell-cell junction and the better skin barrier function will be.
(§3) In the present method, keratinocytes were treated with the sample compositions in a 6-well plate overnight. After washing with cold phosphate-buffered saline (PBS), total RNAs were prepared from each well. Real-Time Quantitative Reverse Transcription PCR (qRT-PCR) was performed to detect the target genes ([…]) expression level using a One-step TaqMan® RT-PCR kit (Life Technologies).
(§4) Samples containing various amounts of acetyl hexapeptide-38 and/or acetyl hexapeptide-46 were tested for cell-cell junction, as described above. Solution of Vitamin D3 and keratinocyte growth medium (KGM) were used for comparison. The results are summarized in Tables 3-4 below, and graphically represented in FIGS. 3-4. It can be seen that compositions containing acetyl hexapeptide-38 and/or acetyl hexapeptide-46 enhanced cell-cell junction when compared to Vitamin D3 and KGM.

Another assay has as its system DSG1. In words: Cell-cell junction, qRT-PCR for desmoglein (DSG1). The note with it: keratinocytes treated overnight; KGM = 100.
Text: as §1, §2, §3, §4

Another assay concerns APQ3. In words: Skin water channel biomarker: APQ3 expression. The note with it: FIG. 10. An excerpt: FIG. 5 is a graphical representation of the effect of various compositions on the irritation response of cells treated with known irritants, as quantified by measuring IL-8 secretion, and on cell viability. FIG. 6 is a graphical representation of Involucrin Expression—Keratinocytes (KC) differentiation. FIG. 7 is a graphical representation of PPARδ expression—ceramides related biomarker. FIG. 8 is a graphical representation of ABCA12 expression—fatty acid related biomarker. FIG. 9 is a graphical representation of DSC1 expression—cell-cell junction biomarker. FIG. 10 is a graphical representation of APQ3 expression—skin water channel.
An in vitro model was employed, using monolayer human dermal keratinocytes culture (KGM). Two controls were tested: the medium and inflammatory cytokines interleukin (IL-1b).
Skin Barrier Biomarkers: ABCA12, Involucrin, PPARδ. Different concentrations of ingredients were used to treat the keratinocyte for 24 hours. Cells were collected and total RNA prepared from the treated cells. Real-time RT-PCT was used to detect different barrier function related biomarker's gene expression level. Comparative Benchmark: Vitamin D3 (cholecalciferol) in three different concentrations.

For the compound acetyl hexapeptide-38 [Example 1G], in the assay with IL-8, the IL-8 secreted was 57.20% and the “Reduction of IL-8 Secretion Compared to Control B” value (“Reduction” for short) is given as 42.80%.

In the case of `C=C1CC[C@H](O)C/C1=C/C=C1\CCC[C@]2(C)[C@@H]([C@H](C)CCCC(C)C)CC[C@@H]12` [VitD3, cholecalciferol, reference compound], the DSC3 % with DSC3 came to 109%. The DSG1 % in the assay with DSG1 is 65%.

As for acetyl hexapeptide-46 [Example 2B], in the assay on IL-8, the IL-8 secreted came out at 50.90% and the “Reduction” value was found to be 49.10%.

On to Acetyl hexapeptide-38 [Example 3B], for which, in the assay with DSC3, the DSC3 % worked out at 205%. The same compound registered a DSG1 % in the assay on DSG1 of 144%.

As for acetyl hexapeptide-38 [Example 1A], in the assay with IL-8, the IL-8 secreted turned out to be 69.60% and the “Reduction” value is on record as 30.40%.

Acetyl hexapeptide-38 [Example 3C] registered a DSC3 % in the assay on DSC3 of 210%. Moreover, the DSG1 % in the assay with DSG1 was 178%.

In the case of acetyl hexapeptide-38, in the assay on IL-8, the “effect on IL-8 secretion compared to Control B (in words)” value is “reduce the IL-8 secretion”.

For the compound acetyl hexapeptide-46 [Example 2D], in the assay on IL-8, the IL-8 secreted stood at 78.20% and the “Reduction” value is reported as 21.80%.

Turning to Acetyl hexapeptide-46 [Example 3D], in the assay with DSC3, the DSC3 % came out at 230%.

As to acetyl hexapeptide-46, the “effect on IL-8 secretion compared to Control B (in words)” value in the assay with IL-8 is recorded as “reduce the IL-8 secretion”. Besides, in the assay with APQ3, the “APQ3 expression in KC (in words)” value is on record as “does not individually stimulate APQ3 expression”.

acetyl hexapeptide-46 [Example 2A]: in the assay on IL-8, the IL-8 secreted is given as 27.10% and the “Reduction” value was 72.90%.

In the assay on DSC3, Acetyl hexapeptide-46 [Example 3E] gave a DSC3 % of 377%. Also, the DSG1 % in the assay on DSG1 was determined as 162%.

On to acetyl hexapeptide-46 [Example 2C], for which, in the assay with IL-8, the IL-8 secreted is listed as 65.60% and the “Reduction” value is 34.40%.

acetyl hexapeptide-38 [Example 1B]: in the assay with IL-8, the IL-8 secreted came to 71.70% and the “Reduction” value worked out at 28.30%.

For the compound Acetyl hexapeptide-38 [Example 3A], the DSC3 % with DSC3 was determined as 160%.

In the case of acetyl hexapeptide-38 [Example 1C], in the assay on IL-8, the IL-8 secreted was 84.90% and the “Reduction” value is given as 15.10%.

For acetyl hexapeptide-38 [Example 1D], in the assay on IL-8, the IL-8 secreted is reported as 95.80% and the “Reduction” value was determined as 4.20%.

As to acetyl hexapeptide-46 [Example 2G], in the assay on IL-8, the IL-8 secreted is given as −6.90% and the “Reduction” value came out at 106.90%.

In the assay with DSC3, Acetyl hexapeptide-46 [Example 3F] registered a DSC3 % of 265%. Also, the DSG1 % in the assay with DSG1 was found to be 199%.
